Results on two compounds are retold here after PMC9721423, “Novel benzo chromene derivatives: design, synthesis, molecular docking, cell cycle arrest, and apoptosis induction in human acute myeloid leukemia HL-60 cells” (Journal of Enzyme Inhibition and Medicinal Chemistry, 2022).

As a reminder, the GI50 is the concentration that inhibits growth by half.

Read-outs that look alike come from different tables or passages of the source.

Holding throughout (experiment): cells
What all share (design): species or system NCI-60 human tumour cell lines; NCI-60 five-dose growth inhibition screen, sulforhodamine B protein stain
For orientation: The SRB assay estimates cell density from bound dye.

One test concerns OVCAR-5. The note with it: Homo sapiens, OVCAR-5, 48 h. How it is done:
(§1) All the newly synthesised 28 compounds were selected for single-dose testing. NCI60 single-dose testing is performed in all 60 cell lines according to the reported assay (National Cancer Institute, https://dtp.cancer.gov/) (National Cancer Institute https://dtp.cancer.gov/discovery_development/nci-60/), compounds were dissolved in DMSO: glycerol […] and are stored in a −70 °C freezer. The prepared compounds were added at single concentration of 1 0^−5 M and the culture was incubated for 48 h. End point determinations were made with a protein binding dye, sulforhodamine B (SRB). The human tumour cell lines were derived from nine different cancer types: leukaemia, melanoma, lung, colon, central nervous system (CNS), ovarian, renal, prostate, and breast cancers. Dose–response curves for these compounds were created by plotting the percentage growth (PGs or % growth) against log10 of the corresponding concentration for every cell line. Three response parameters, GI50 (Median Growth Inhibitory Concentration), TGI (Total Growth Inhibitory Concentration), and LC50 (Median Lethal Concentration) were calculated[54] (National Cancer Institute, https://dtp.cancer.gov/discovery_development/nci-60/) (National Cancer Institute, https://dtp.cancer.gov/)[55] for compounds 5a and 6a. […] Furthermore, the average sensitivity of all cell lines towards the compound is termed as the full panel mean graph midpoints (MG-MID). The ratio obtained by dividing the full panel mean graph midpoints (MG-MID) concentration by the individual subpanel MG-MID concentrations (obtained as the average sensitivity of all cell lines of a particular subpanel towards the test compound) is considered a criterion for the compound selectivity towards the corresponding cell line. Ratios greater than 6 indicate high selectivity while ratios between 3 and 6 refer to moderate selectivity whereas compounds not meeting either of these criteria were rated non-selective[56].

A further test relates to A549/ATCC. As to conditions: Homo sapiens, A549, 48 h. How it is done: as §1
The next test deals with CAKI-1. As to conditions: Homo sapiens, CAKI-1, 48 h. Here is the method:
as §1

The test system of the next test is NCI-H23. As to conditions: Homo sapiens, NCI-H23, 48 h. Here is the method: as §1
The next test relates to SNB-19. The note with it: Homo sapiens, SNB-19, 48 h. Here is the method: as §1
The subject of another test is SF-295. As to conditions: Homo sapiens, SF-295, 48 h. Here is the method: as §1
Another test relates to EKVX. The note with it: Homo sapiens, EKVX, 48 h. How it is done: as §1
For the next test, the system named is HL-60(TB). As to conditions: Homo sapiens, HL-60, 48 h. How it is done: as §1
In the next test the test system is SNB-75. The note with it: Homo sapiens, SNB-75, 48 h. Here is the method:
as §1

Another test concerns IGROV1. The note with it: Homo sapiens, IGROV-1, 48 h. How it is done: as §1
The subject of the next test is MDA-MB-435. The note with it: Homo sapiens, MDA-MB-435, 48 h. Here is the method:
as §1

A further test has as its system HCT-116. As to conditions: Homo sapiens, HCT-116, 48 h. Here is the method:
as §1

A further test relates to MDA-MB-231/ATCC. As to conditions: Homo sapiens, MDA-MB-231, 48 h. How it is done: as §1
In another test the test system is CCRF-CEM. The note with it: Homo sapiens, CCRF-CEM, 48 h. How it is done: as §1
For a further test, the system named is SK-MEL-28. As to conditions: Homo sapiens, SK-MEL-28, 48 h. Here is the method: as §1
A further test deals with ACHN. The note with it: Homo sapiens, ACHN, 48 h. How it is done:
as §1

A further test deals with HCT-15. The note with it: Homo sapiens, HCT-15, 48 h. Here is the method: as §1

Regarding `CC(=O)NC1=C(C#N)C(c2ccccc2)c2ccc3ccccc3c2O1` (stereo not shown) [6a, N-(3-Cyano-4-phenyl-4H-benzo[h]chromen-2-yl)acetamide], the GI50 was determined as 2100 nM in the test with OVCAR-5 (read-out: GI50 6a); 980 nM with A549/ATCC (read-out: GI50 6a); 340 nM in the test with CAKI-1 (read-out: GI50 6a); 730 nM in the test with NCI-H23 (read-out: GI50 6a); 780 nM in the test with SNB-19 (read-out: GI50 6a); 330 nM with SF-295 (read-out: GI50 6a). The GI50 is 49900 nM in the test with EKVX (read-out: GI50 6a); 290 nM with HL-60(TB) (read-out: GI50 6a); 240 nM in the test with SNB-75 (read-out: GI50 6a); 530 nM with IGROV1 (read-out: GI50 6a); 230 nM in the test with MDA-MB-435 (read-out: GI50 6a); 430 nM in the test with HCT-116 (read-out: GI50 6a). In addition, the concentration for 50% growth inhibition (GI50) in the test on MDA-MB-231/ATCC (read-out: GI50 6a) stood at 1250 nM; with CCRF-CEM (read-out: GI50 6a) it was 390 nM; with SK-MEL-28 (read-out: GI50 6a), 860 nM; in the test on ACHN (read-out: GI50 6a), 550 nM; with HCT-15 (read-out: GI50 6a), 510 nM.

Take `N=C(NO)C1=C(N)Oc2c(ccc3ccccc23)C1c1ccccc1` (stereo not shown) [5a, 2-Amino-4-phenyl-N-hydroxy-4H-benzo[h]chromene-3-carboxamidine]: the 50% growth inhibitory concentration (GI50) came to 610 nM in the test with OVCAR-5; 420 nM with A549/ATCC (read-out: GI50 5a); 100 nM in the test on CAKI-1 (read-out: GI50 5a); 470 nM with NCI-H23 (read-out: GI50 5a); 490 nM with SNB-19 (read-out: GI50 5a); 300 nM in the test with SF-295 (read-out: GI50 5a). Also, the GI50 is 820 nM with EKVX (read-out: GI50 5a); 240 nM with HL-60(TB) (read-out: GI50 5a); 80 nM in the test on SNB-75 (read-out: GI50 5a); 330 nM in the test on IGROV1 (read-out: GI50 5a); 30 nM with MDA-MB-435 (read-out: GI50 5a); 410 nM with HCT-116 (read-out: GI50 5a). Moreover, the GI50 in the test on MDA-MB-231/ATCC (read-out: GI50 5a) is 630 nM; with CCRF-CEM (read-out: GI50 5a), 380 nM; with SK-MEL-28 (read-out: GI50 5a), 11800 nM; in the test on ACHN (read-out: GI50 5a), 370 nM; in the test on HCT-15 (read-out: GI50 5a), 130 nM.
